Results on six compounds are retold here after publication PMC8262977, “A Dual-Specificity Inhibitor Targets Polyphosphate Kinase 1 and 2 Enzymes To Attenuate Virulence of Pseudomonas aeruginosa” (mBio, 2021).

In brackets after ≈: the same amount, converted by molar mass. Like-named read-outs stand apart in the source and are kept apart here.

Data set [1] relates to P. aeruginosa. As to the kind of experiment: Antibiotic synergy in the C. elegans LK model. In kind it is in vivo, Caenorhabditis elegans. On the set-up: C. elegans antibiotic synergy, Mean Diff.: unit not given here. The protocol: Assessment of antibiotic synergy in the C. elegans model was adapted from previously described protocols ([25]). Briefly, glp-4 C. elegans worms were incubated at 25°C with P. aeruginosa and the indicated amount of gallein or DMSO in LK medium as described above. After 24 h, antibiotics were added. After another 24 h, C. elegans survival was scored as described above.

Data set [2] has as its system P. aeruginosa. As to the kind of experiment: microbe, parasite or virus in culture. The conditions noted are these: Pseudomonas aeruginosa. In kind it is cell-based, Pseudomonas aeruginosa.
The target in another data set is T1, P. aeruginosa PPK1 (Pseudomonas aeruginosa, UniProt P0DP44).
T1 construct: His tag (cleaved yes); made in house
In words: PPK1 polyP synthesis from ATP, toluidine blue detection. The conditions noted are these: polyP synthesis from ATP; 275 nM enzyme. In kind it is biochemical. The protocol:
Compounds were synthesized as outlined in Text S1. Compounds were dissolved in DMSO to make 10 mM stocks and added to a 200 μM final concentration for initial screening. The screen for PPK1 inhibitors was conducted by measuring polyP synthesis activity as described previously ([12]), with the exception of the polyP detection method (see Text S1). […] One-hundred-microliter reaction mixtures were incubated at 37°C for 30 min, after which time 50-μl aliquots were withdrawn and added to 1,000 μl of 6-mg/liter toluidine blue dissolved in 40 mM acetic acid to quench the reaction and quantify polyP ([27]). The A630/530 nm ratio was then recorded, and the values obtained were corrected by subtracting the corresponding blanks (all ingredients except enzyme). The amount of polyP synthesized was calculated using a standard curve (Fig. S1A). Any compounds showing 50% or greater reduction in activity relative to the DMSO control were subjected to further IC50 analysis.
(§1) All IC50 and kinetic assay mixtures contained equimolar amounts (275 nM) of PPK to ensure valid comparison between different enzymes. PolyP synthesis activity (for PPK1 and PPK2B) was assayed using the reaction buffer and conditions described above. ATP concentration was varied as indicated for kinetic experiments. Curves were fit using GraphPad Prism V9.

The next data set has as its target T2, P. aeruginosa PPK2A (Pseudomonas aeruginosa, UniProt Q9I6Z1).
T2 construct: residues P9 to P289; MBP (N, cleaved yes); His tag (N, cleaved yes); made in house; host or cells: E. coli BL21(DE3)
As to the kind of experiment: PPK2A ADP phosphorylation by polyP (ATP synthesis), toluidine blue detection. It counts as biochemical. The protocol:
as §1
(§2) Nucleotide phosphorylation activity of PPK2 enzymes was assayed in buffer containing 50 mM Tris-HCl, pH 7.5, 10 mM (NH4)2SO4, 10 mM MgCl2, 5 mM polyP45 (Sigma; in terms of individual Pi monomers), and nucleotide (ADP or AMP) at 5 mM for IC50 reactions or as indicated for kinetic experiments. Enzyme was added to a final concentration of 275 nM in 100-μl reaction volumes. One-hundred-microliter reaction mixtures were incubated at 37°C for 30 min, and then 5-μl aliquots were withdrawn and added to 1,000 μl of 6-mg/liter toluidine blue dissolved in 40 mM acetic acid to quench the reaction and quantify the polyP that remained. The A630/530 nm ratio was then recorded, and the values obtained were corrected by subtracting the corresponding blanks (all ingredients except enzyme). The amount of polyP consumed was calculated by subtracting the amount present after reaction from that present in the initial reaction mix, as calculated via a standard curve. Each monomer of Pi consumed from polyP equates to one nucleoside phosphorylated. Curves were fit using GraphPad Prism V9.

The next data set has as its target T3, P. aeruginosa PPK2B (Pseudomonas aeruginosa, UniProt Q9I154).
T3 construct: MBP (N, cleaved yes); His tag (N, cleaved yes); made in house; host or cells: E. coli BL21(DE3)
In words: PPK2B polyP synthesis from ATP, toluidine blue detection. It counts as biochemical. The protocol: Compounds were synthesized as outlined in Text S1. Compounds were dissolved in DMSO to make 10 mM stocks and added to a 200 μM final concentration for initial screening. The screen for PPK1 inhibitors was conducted by measuring polyP synthesis activity as described previously ([12]), with the exception of the polyP detection method (see Text S1). The reaction mix contained 50 mM HEPES-KOH, pH 7.5, 40 mM (NH4)2SO4, 4 mM MgSO4, 60 mM creatine phosphate, 0.0625 mg/ml creatine kinase (Sigma; from rabbit muscle), 5 mM ATP, and 275 nM PPK1 (added last). One-hundred-microliter reaction mixtures were incubated at 37°C for 30 min, after which time 50-μl aliquots were withdrawn and added to 1,000 μl of 6-mg/liter toluidine blue dissolved in 40 mM acetic acid to quench the reaction and quantify polyP ([27]). The A630/530 nm ratio was then recorded, and the values obtained were corrected by subtracting the corresponding blanks (all ingredients except enzyme). The amount of polyP synthesized was calculated using a standard curve (Fig. S1A). Any compounds showing 50% or greater reduction in activity relative to the DMSO control were subjected to further IC50 analysis.
as §1

For a further data set, the target named is T4, P. aeruginosa PPK2C (Pseudomonas aeruginosa, UniProt Q9HYF1).
T4 construct: MBP (N, cleaved yes); His tag (N, cleaved yes); made in house; host or cells: E. coli BL21(DE3)
In words: PPK2C AMP phosphorylation by polyP (ADP synthesis), toluidine blue detection. In kind it is biochemical. The protocol: as §1, §2

The subject of the next data set is E. coli PPK1. On the set-up: method as in earlier work. Particulars: ref 1 (supplement: Ahn K, Kornberg A. 1990); cited from earlier work.
In a further data set the test system is HEK293T cells. In words: HEK293T cytotoxicity assay, trypan blue. It counts as cell-based, human. Particulars: 48 h incubation. The protocol:
HEK293 cells were grown in Dulbecco’s modified Eagle’s medium supplemented with 10% fetal bovine serum at 5% CO2 and 37°C. Cells were grown until a confluent monolayer was formed in 12-well culture plates, at which point inhibitors or DMSO was added. After 48-h incubation, cells were detached with trypsin and percent viability was scored via a hemocytometer and trypan blue staining.

Setting [3] is: ATP synthesis from ADP and polyP, 275 nM enzyme, read-out: IC50 PPK2A.
[4] abbreviates: polyP synthesis from ATP, 275 nM enzyme, read-out: IC50 PPK2B.
Setting [5] is: ADP synthesis from AMP and polyP, 275 nM enzyme, read-out: IC50 PPK2C.
[6] abbreviates: Data Set S1, sheet Risen compounds, read-out: PA PPK2C IC50.
Setting [7] is: Data Set S1, sheet Risen compounds, read-out: PA PPK2A IC50.

T4 sequence (Q9HYF1 whole entry): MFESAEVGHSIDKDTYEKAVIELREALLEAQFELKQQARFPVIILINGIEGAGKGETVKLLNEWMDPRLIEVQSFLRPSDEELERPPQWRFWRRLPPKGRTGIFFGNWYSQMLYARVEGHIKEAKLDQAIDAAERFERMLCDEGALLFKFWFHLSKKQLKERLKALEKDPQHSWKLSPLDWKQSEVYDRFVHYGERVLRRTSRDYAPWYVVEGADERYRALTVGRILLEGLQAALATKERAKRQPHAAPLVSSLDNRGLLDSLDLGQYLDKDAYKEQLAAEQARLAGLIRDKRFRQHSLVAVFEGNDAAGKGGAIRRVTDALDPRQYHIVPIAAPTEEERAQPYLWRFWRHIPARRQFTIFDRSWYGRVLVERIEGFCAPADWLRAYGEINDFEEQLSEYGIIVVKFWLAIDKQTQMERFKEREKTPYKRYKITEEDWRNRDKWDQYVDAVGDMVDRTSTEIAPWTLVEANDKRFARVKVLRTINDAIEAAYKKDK
T2 sequence (Q9I6Z1 68-348): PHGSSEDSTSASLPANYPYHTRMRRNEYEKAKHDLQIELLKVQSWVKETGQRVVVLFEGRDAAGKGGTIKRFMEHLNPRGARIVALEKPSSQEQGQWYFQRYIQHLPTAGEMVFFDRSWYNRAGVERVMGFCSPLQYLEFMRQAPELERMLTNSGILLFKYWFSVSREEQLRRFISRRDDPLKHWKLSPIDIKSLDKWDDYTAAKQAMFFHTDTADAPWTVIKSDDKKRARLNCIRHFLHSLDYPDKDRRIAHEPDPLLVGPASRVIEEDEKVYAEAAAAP
T1 sequence (P0DP44 whole entry): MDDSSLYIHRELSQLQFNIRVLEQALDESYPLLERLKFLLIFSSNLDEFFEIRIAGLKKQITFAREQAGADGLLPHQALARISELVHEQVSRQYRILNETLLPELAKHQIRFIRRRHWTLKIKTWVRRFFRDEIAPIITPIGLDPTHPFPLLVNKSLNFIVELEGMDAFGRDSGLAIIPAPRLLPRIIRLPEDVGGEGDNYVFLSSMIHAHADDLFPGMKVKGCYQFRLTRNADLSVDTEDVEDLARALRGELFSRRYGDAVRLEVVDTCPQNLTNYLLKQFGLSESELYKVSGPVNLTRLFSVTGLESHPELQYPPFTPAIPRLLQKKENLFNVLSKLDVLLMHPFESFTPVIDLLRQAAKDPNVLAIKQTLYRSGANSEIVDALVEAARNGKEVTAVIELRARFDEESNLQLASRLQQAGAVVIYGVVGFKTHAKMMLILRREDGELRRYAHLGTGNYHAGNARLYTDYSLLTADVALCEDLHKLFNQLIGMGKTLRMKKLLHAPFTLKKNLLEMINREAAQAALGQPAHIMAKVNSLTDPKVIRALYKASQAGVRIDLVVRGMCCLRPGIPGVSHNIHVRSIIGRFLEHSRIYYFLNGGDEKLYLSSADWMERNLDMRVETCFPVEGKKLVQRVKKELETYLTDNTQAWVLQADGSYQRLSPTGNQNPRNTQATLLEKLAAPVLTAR
T3 sequence (Q9I154 whole entry): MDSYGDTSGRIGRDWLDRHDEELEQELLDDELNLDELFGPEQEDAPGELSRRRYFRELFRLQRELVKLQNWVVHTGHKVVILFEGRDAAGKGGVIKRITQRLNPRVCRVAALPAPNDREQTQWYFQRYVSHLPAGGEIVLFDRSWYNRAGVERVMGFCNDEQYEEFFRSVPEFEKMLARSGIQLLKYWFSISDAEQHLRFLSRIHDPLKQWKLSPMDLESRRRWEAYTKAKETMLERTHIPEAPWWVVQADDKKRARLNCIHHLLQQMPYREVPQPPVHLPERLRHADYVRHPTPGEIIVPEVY

On to `CN(C)[C@@H]1C(O)=C(C(N)=O)C(=O)[C@@]2(O)C(O)=C3C(=O)c4c(O)cccc4[C@@](C)(O)[C@H]3C[C@@H]12` [tetracycline, reference compound], for which the “C. elegans antibiotic synergy, Mean Diff.” value in the data set with P. aeruginosa [1] (No antibiotic + 100 µM gallein vs Tet (10 µg/mL) + 100 µM gallein) is -22.79; in the data set with P. aeruginosa [1] (No antibiotic DMSO vs Tet (10 µg/mL) DMSO), 10.54. Moreover, the MIC with P. aeruginosa [2] came to 16 µg/mL (≈ 36 µM).

Take `O=c1oc2c(O)c(O)cc3c(=O)oc4c(O)c(O)cc1c4c23` [RT3 (ellagic acid), 2,3,7,8-tetrahydroxychromeno[5,4,3-cde]chromene-5,10-dione]: the IC50 – broadly, the concentration needed to halve the response being measured – was 20 ± 2 µM at P. aeruginosa PPK1; 50 ± 6 µM at P. aeruginosa PPK2A (setting [3]); 48 ± 2 µM on P. aeruginosa PPK2B (setting [4]); over 500 µM at P. aeruginosa PPK2C (setting [5]); over 500 µM at P. aeruginosa PPK2C (setting [6]).

`Nc1ncnc2c1ncn2[C@@H]1O[C@H](COP(=O)(O)OP(=O)(O)O)[C@@H](O)[C@H]1O` [ADP]: the Ki (commonly the dissociation constant of the complex between target and ligand, obtained from inhibition or displacement) with E. coli PPK1 was 90 µM.

For the compound `COc1ccc2c(c1OC)c(=O)oc1c(OC)c(O)ccc12` [RT1, 3-hydroxy-4,7,8-trimethoxy-6H-benzo[c]chromen-6-one], the IC50 on P. aeruginosa PPK1 was 120 ± 10 µM; on P. aeruginosa PPK2A (setting [3]), over 500 µM; on P. aeruginosa PPK2A (setting [7]), over 500 µM; at P. aeruginosa PPK2B (Data Set S1, sheet Risen compounds, read-out: PA PPK2B IC50), over 500 µM; on P. aeruginosa PPK2B (setting [4]), over 500 µM; at P. aeruginosa PPK2C (setting [5]), over 500 µM. In addition, at P. aeruginosa PPK2C (setting [6]), the IC50 was over 500 µM. In addition, in the data set with HEK293T cells, the “reduction of cell viability” value was about 60%.

`O=c1oc2c(O)c(O)c(O)c3c(=O)oc4c(O)c(O)cc1c4c23` [RT2, 1,2,3,7,8-pentahydroxychromeno[5,4,3-cde]chromene-5,10-dione]: the IC50 on P. aeruginosa PPK1 was 20 ± 4 µM; at P. aeruginosa PPK2A (setting [3]), over 500 µM; on P. aeruginosa PPK2A (setting [7]) it was over 500 µM; on P. aeruginosa PPK2B (setting [4]) it was 59 ± 5 µM; at P. aeruginosa PPK2C (setting [5]), over 500 µM; on P. aeruginosa PPK2C (setting [6]), over 500 µM.

Take `O=C(O)c1cn(C2CC2)c2cc(N3CCNCC3)c(F)cc2c1=O` [ciprofloxacin, reference compound]: the “C. elegans antibiotic synergy, Mean Diff.” value was -18.9 in the data set on P. aeruginosa [1] (No antibiotic + 100 µM gallein vs Cipro (0.75 µg/mL) + 100 µM gallein) and 12.02 with P. aeruginosa [1] (No antibiotic DMSO vs Cipro (0.75 µg/mL) DMSO).
